Here are results for 24 compounds from ChEMBL document CHEMBL3865843, “Identification of Ligand Binding Hot Spots of the Histamine H1 Receptor following Structure-Based Fragment Optimization” (J Med Chem, 2016).

For the first assay, the target named is Histamine H1 receptor (Homo sapiens, UniProt P35367). The assay is described as follows: biochemical. The format is cell-based, HEK-293T.
Histamine H1 receptor, sequence (P35367 whole entry): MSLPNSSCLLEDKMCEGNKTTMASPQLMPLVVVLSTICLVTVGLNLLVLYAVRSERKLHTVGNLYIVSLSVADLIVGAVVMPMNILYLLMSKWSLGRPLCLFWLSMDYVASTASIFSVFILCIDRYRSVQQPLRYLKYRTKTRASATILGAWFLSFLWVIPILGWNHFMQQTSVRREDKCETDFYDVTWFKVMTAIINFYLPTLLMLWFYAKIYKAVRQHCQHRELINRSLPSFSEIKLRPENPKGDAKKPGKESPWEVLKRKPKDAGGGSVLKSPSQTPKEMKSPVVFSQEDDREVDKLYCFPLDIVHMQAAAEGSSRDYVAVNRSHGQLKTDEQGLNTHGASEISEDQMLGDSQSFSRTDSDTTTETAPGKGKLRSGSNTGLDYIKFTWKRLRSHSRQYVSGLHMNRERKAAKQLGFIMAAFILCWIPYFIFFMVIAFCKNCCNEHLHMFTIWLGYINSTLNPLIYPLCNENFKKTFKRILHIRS
Settings: not given
The compound `c1ccc(Cc2ccccc2OCCCN2CCCC2)cc1` showed an inhibition constant Ki of 10 nM. That is a double-digit nanomolar value. On the same count and under the same terms, the value for `c1ccc(Cc2ccccc2OCCN2CCCCC2)cc1` was 25.1 nM.

For the compound `c1ccc(Cc2ccccc2OCCCN2CCCCC2)cc1`, the Ki is 12.6 nM. On to `c1ccc(OC2CCNCC2)cc1`, for which the Ki was 3980 nM.

On to `CN1CCC(Oc2ccccc2Cc2ccc(Cl)cc2)CC1`, for which the inhibition constant Ki is 2.51 nM.

For `Clc1ccc(Cc2ccccc2OC2CCNCC2)cc1`, the Ki is 6.31 nM. Still for that read-out and setting: the value for `c1ccc(Cc2cccc(OC3CCNCC3)c2)cc1` was 1580 nM. On to `NCCOc1ccccc1Cc1ccccc1`, for which affinity was put at a Ki of 1580 nM. Compound `c1ccc(-c2ccccc2OC2CCNCC2)cc1` had an inhibitory constant (Ki) of 316 nM.

`CN(C)CCOc1ccccc1Cc1ccccc1` gave a Ki of 12.6 nM. Compound `c1ccc(Cc2ccccc2OCCN2CCCCCC2)cc1` gave an inhibition constant Ki of 63.1 nM.

As to `C[N+]1(C)CCC(Oc2ccccc2Cc2ccccc2)CC1`, the affinity, expressed as Ki, was 25.1 nM. The same measure, in the same setting: the value for `CNCCOc1ccccc1Cc1ccccc1` was 100 nM. On to `CN(C)CCCOc1ccccc1Cc1ccccc1`, for which the affinity corresponds to a Ki of 3.16 nM. On to `c1ccc(Cc2ccccc2OCCN2CCC2)cc1`, for which the inhibition constant (Ki) was 6.31 nM. This Ki is about 2-fold higher than that of the compound before. With `c1ccc(Cc2ccc(OC3CCNCC3)cc2)cc1`, the inhibition constant (Ki) is 10000 nM. This Ki lies about 1600-fold higher than the previous one. On the same count and under the same terms, next, `CNCCCOc1ccccc1Cc1ccccc1`: 31.6 nM; `c1ccc(Cc2ccccc2OCCCN2CCCCCC2)cc1`: 20 nM; `O=C(O)/C=C/C(=O)O.c1ccc(Cc2ccccc2OC2CCNCC2)cc1`: 15.8 nM. On to `NCCCOc1ccccc1Cc1ccccc1`, for which the inhibition constant (Ki) was 316 nM.

`CN1CCC(Oc2ccccc2)CC1` gave an inhibition constant (Ki) of 251 nM.

With `c1ccc(Cc2ccccc2OCCCN2CCC2)cc1`, the Ki was 7.94 nM. `c1ccc(Cc2ccccc2OCCN2CCCC2)cc1` gave a Ki of 15.8 nM.

Tested on in the next assay: not listed separately
Put plainly: Displacement of [3H]mepyramine from human N-terminal hemagglutinin-tagged histamine H1 receptor I454(7.39)T mutant expressed in HEK293T cells after 4 hrs by microbeta liquid scintillation counting analysis. The format is cell-based. The conditions noted are these: hek-293t.
`CN1CCC(Oc2ccccc2Cc2ccccc2)CC1.O=C(O)/C=C/C(=O)O`: the negative-log Ki (pKi) came to 8.3. Compound `O=C(O)/C=C/C(=O)O.c1ccc(Cc2ccccc2OC2CCNCC2)cc1` displayed a negative-log Ki (pKi) of 8.

Tested on in the next assay: not listed separately
The assay is described as follows: Displacement of [3H]mepyramine from human N-terminal hemagglutinin-tagged histamine H1 receptor I454(7.39)F mutant expressed in HEK293T cells after 4 hrs by microbeta liquid scintillation counting analysis. The conditions noted are these: hek-293t. In kind it is cell-based.
For `CN1CCC(Oc2ccccc2Cc2ccccc2)CC1.O=C(O)/C=C/C(=O)O`, the pKi is 8.2.

`O=C(O)/C=C/C(=O)O.c1ccc(Cc2ccccc2OC2CCNCC2)cc1` showed a pKi of 7.4.
